Data on five molecules can be found in patent US7071217B2, “Substituted oxindole derivatives as tyrosine kinase inhibitors” (SmithKline Beecham Corporation, priority 2000, dated 2006).

Structures are written as SMILES. pIC50: −log10 of the molar value.

Broadly, the pIC50 is the IC50 on a negative log10 scale, so that one unit is a factor of ten. Read a low pIC50 as a high IC50.

In the experiment the target is T1, TrkA (Homo sapiens, UniProt P04629).
T1 construct: The enzyme is a GST-fusion of the intracellular domain expressed in SF9 cells; purchased Regeneron; host or cells: SF9 cells
T1 sequence (P04629 440-796 limits assumed, species assumed): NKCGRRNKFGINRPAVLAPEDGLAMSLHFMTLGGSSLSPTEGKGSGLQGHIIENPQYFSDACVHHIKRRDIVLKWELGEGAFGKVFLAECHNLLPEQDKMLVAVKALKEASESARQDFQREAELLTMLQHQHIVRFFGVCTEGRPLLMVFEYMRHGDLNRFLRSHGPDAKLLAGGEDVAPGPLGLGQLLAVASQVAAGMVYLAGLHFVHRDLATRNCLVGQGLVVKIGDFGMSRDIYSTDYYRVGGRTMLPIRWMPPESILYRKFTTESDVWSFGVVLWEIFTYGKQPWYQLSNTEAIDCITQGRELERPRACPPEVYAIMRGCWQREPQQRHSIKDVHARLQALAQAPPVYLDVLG
Kind of experiment: TrkA tyrosine kinase substrate phosphorylation assay (Src peptide, 33P-ATP, p81 filter plates). In kind it is biochemical. To be noted: GST-fusion of TrkA intracellular domain; 20-40 nM TrkA, 30 uM ATP, 50 uM Src peptide, RT 120 min. The procedure: The compounds of the present invention have valuable pharmacologic properties. Different compounds from this class are particularly effective at inhibiting the trkA kinase enzyme at concentrations which range from 0.0001 to 1 μM and additionally show specificity relative to other kinases. Substrate phosphorylation assays were carried out as follows:
Screening format: Tyrosine kinase activity is being measured using a synthetic peptide substrate. The enzyme is a GST-fusion of the intracellular domain expressed in SF9 cells. The enzyme is expressed and purified by Regeneron. The enzyme is preincubated with cold ATP and Mg to allow autophosphorylation prior to running the screen. This increases the initial rate of catalysis approximately 3 fold. The assay is performed in 96 well microtitre plates, and reaction products are detected following filtration through millipore p81 phosphocellulose plates. Assay Conditions
On to `CNS(=O)(=O)Cc1ccc(N/N=C2\C(=O)Nc3cc(C(C)C)c(O)c(Cl)c32)cc1` [Example 1, {4-[(2Z)-2-(4-chloro-5-hydroxy-6-isopropyl-2-oxo-1,2-dihydro-3H-indol-3-ylidene)hydrazino]phenyl}-N-methylmethanesulfonamide], for which the pIC50 was above 8.00.
The result for `CS(=O)(=O)Nc1ccc(N/C=C2\C(=O)Nc3ccccc32)cc1` [Example 2, N-(4-{[(Z)-(2-oxo-1,2-dihydro-3H-indol-3-ylidene)methyl]amino}phenyl)methanesulfonamide] reads above 8.00; that for `O=C1Nc2ccccc2/C1=C/Nc1ccc(S(=O)(=O)Nc2ccccn2)cc1` [Example 3, 4-{[(Z)-(2-oxo-1,2-dihydro-3H-indol-3-ylidene)methyl]amino}-N-(2-pyridinyl)benzenesulfonamide], 7.00 to 8.00.
For `Cc1nnc(NS(=O)(=O)c2ccc(N/C=C3\C(=O)Nc4ccccc43)cc2)s1` [Example 4, N-(5-methyl-1,3,4-thiadiazol-2-yl)-4-{[(Z)-(2-oxo-1,2-dihydro-3H-indol-3-ylidene)methyl]amino}benzenesulfonamide], the pIC50 is 7.00 to 8.00.
For the molecule `NS(=O)(=O)c1cccc(N/C=C2\C(=O)Nc3ccccc32)c1` [Example 5, 3-{[(Z)-(2-oxo-1,2-dihydro-3H-indol-3-ylidene)methyl]amino}benzenesulfonamide], the pIC50 is 7.00 to 8.00.
